Source: patent publication US20090270435A1 (priority 2006, published 2009)

Columns and labels:
[1] = biological target: T1, ACC2 from rat skeletal muscle (Rattus norvegicus, UniProt Q1HEC0); assay: Direct inhibition of ACC2 activity (14C-bicarbonate incorporation); format: biochemical; settings: ACC2 from rat skeletal muscle
T1 construct: The livers (for ACC1 preparation) or skeletal muscle tissue (for ACC2 preparation) are removed; from tissue; host or cells: skeletal muscle of male CD rats (fasted, then fed a high sucrose diet)
Description: For example direct inhibition of ACC1 and ACC2 activity, for compounds of Formula (1) were determined using preparations of ACC1 from rat liver and ACC2 from rat skeletal muscle.
[1] Preparation of ACC1 and ACC2. ACC1 was obtained from rat liver and ACC2 was obtained from rat skeletal muscle based upon standard procedures such as those described by Thampy and Wakil (J. Biol. Chem. 260: 6318-6323; 1985) using the following method.
Male CD rats weighing 150-200 g are fasted for 2 days and then fed a high sucrose diet (AIN-76A rodent diet; Cat # D10001, Research Diets Inc., New Brunswick, N.J.), for 3 days at which time they are sacrificed by CO2 asphyxiation. The livers (for ACC1 preparation) or skeletal muscle tissue (for ACC2 preparation) are removed, rinsed in ice-cold phosphate-buffered saline (PBS), and homogenized in 5 volumes of homogenization buffer (50 mM potassium phosphate, pH 7.5, 10 mM EDTA, 10 mM 2-mercaptoethanol, 2 mM benzamidine, 0.2 mM phenylmethylsulfonylfluoride (PMSF), 5 mg/L each leupeptin, aprotinin, and antitrypsin) in a Waring® blender for 1 minute at 4° C. All subsequent operations are carried out at 4° C. The homogenate is made 3% with respect to polyethylene glycol (PEG) by the addition of 50% PEG solution and centrifuged at 20,000×g for 15 minutes. The resulting supernatant is adjusted to 5% PEG with the addition of 50% PEG solution and stirred for 5 minutes. The pellet (contains ACC activity) is collected by centrifugation at 20,000×g for 20 minutes, rinsed with Ice-cold doubly distilled water to remove excess PEG and re-suspended in one-fourth the original homogenate volume with homogenization buffer. Ammonium sulfate (200 g/liter) is slowly added with stirring. After 45 minutes the enzyme is collected by centrifugation for 30 minutes at 20,000×g, re-suspended in 10 ml of 50 mM HEPES, pH7.5, 0.1 mM DTT, 1.0 mM EDTA, and 10% glycerol and desalted on a Sephadex™ G-25 column (2.5 cm-x 50 cm) (Pharmacia, Piscataway N.J. now GE Healthcare) […] equilibrated with the same buffer. The desalted enzyme preparation is stored in aliquots at −70° C. Immediately prior to use, frozen ACC1 or ACC2 aliquots are thawed, diluted to 500 μg/ml in buffer containing 50 mM HEPES, pH7.5, 1.0 mM MgCl2, 10 mM tripotassium citrate, 2.0 mM dithiothreitol (DTT), and 0.75 mg/ml fatty acid-free bovine serum albumin (BSA) and pre-incubated at 37° C. for 30 minutes.
[2] Measurement of ACC inhibition. The procedures for measuring ACC1 inhibition and ACC2 inhibition are identical except for the source of the isozyme. For measurement of ACC activity and assessment of ACC inhibition, test compounds are dissolved in dimethylsulfoxide (DMSO) and 1 μL aliquots are placed in 0.5 ml polypropylene tubes. Control tubes contain 1 μL of DMSO alone. Tubes are incubated at 37° C. in a constant temperature water bath. […] The reaction is then initiated by the addition of 10 μL of preincubated ACC fraction prepared as described above. After 7 minutes the reaction is terminated by the addition of 50 μL of 6N HCl and a 150 μL aliquot of the reaction mixture is transferred to glass scintillation vials and evaporated to dryness at 90° C. for at least 1 hour. The dried vials are then cooled, 0.5 ml of water and 5.5 ml of Ready Safe liquid scintillation fluid (Beckman Coulter Inc., Fullerton, Calif.) are added, and the radioactivity is determined using a liquid scintillation counter. Tubes that received HCl before ACC served as blanks.
[3] Specificity for ACC1 vs ACC2 inhibition. The specificity of a compound for Inhibiting ACC1 vs ACC2 can be determined by comparing the concentration of test compound required to inhibit 50% of the activity contained in an aliquot of ACC1 as compared with the concentration of the same compound required to inhibit 50% of the activity of an aliquot of ACC2.

[2] = test system: hepatic fatty acid synthesis; assay: Measurement of fatty acid synthesis inhibition in experimental animals ([2-14C]acetate into saponifiable lipids in liver); format: in vivo, Sprague Dawley rats; settings: Rattus norvegicus, po; read-out: Percent Inhibition at 30 mg/kg
Source text: The ACC inhibitory activity of compounds of this invention, and the salts of such compounds, can be confirmed in vivo by evaluation of their ability to inhibit hepatic fatty acid production and to stimulate whole body fatty acid oxidation using methods based on standard procedures. For example, since ACC catalyzes the first committed step in the biosynthesis of fatty acids, the in vivo activity of these compounds can be confirmed by measuring the ability of the compounds of this invention, and the salts of such compounds, to prevent the formation of radio labeled fatty acids from radio labeled acetate in the livers of treated mammals.
[1] Measurement of fatty acid synthesis inhibition in experimental animals. Incorporation of [2-^14C]acetate into saponifyable lipids in the livers of mammals (e.g. CDI mice, C57BI/6J-ob/ob mice, Sprague Dawley rats (available from Charles River Boston, Mass. or Jackson Labs Bar Harbor, Me.)) can be measured essentially as previously described for assessment of hepatic sterol synthesis (Harwood et al, Biochem. Pharmacol, 40: 1281-1293, 1990; Harwood et al. Biochem. Pharmacol. 53: 839-864, 1997) with the following modifications to allow for assessment fatty acid synthesis. For example, Sprague Dawley rats are administered a 0.1 ml per 40 g body weight of an oral bolus of vehicle (e.g. water or 0.5% methylcellulose in water)±test compound. One to four hours after compound administration, animals receive an intraperitoneal injection of 0.5 ml of [2-^14C]acetate (64 μCi/ml; 57 mCi/mmol). One hour after radiolabel administration, animals are sacrificed by CO2 asphyxiation and two, 0.75 g liver pieces are removed and saponified at […]. for 120 minutes in 1.5 ml of 2.5 M NaOH. After saponification, 2.5 ml of absolute EtOH are added to each sample and the solutions are mixed and allowed to stand overnight. Petroleum ether, 4.8 ml, is then added to each sample and the mixtures are first shaken vigorously for 2 minutes then centrifuged at 1000×g in a bench-top Sorvall®9 for 5 minutes. The resultant petroleum ether layers, which contain the nonsaponifyable lipids (e.g. cholesterol, post-squalene cholesterol precursors and other non-saponifiable lipids), are removed and discarded. The remaining aqueous layer (containing fatty acid sodium salts) is acidified to pH<2 by addition of 0.6 ml of 12 M HCl and extracted two times with 4.8 ml of petroleum ether. The pooled organic fractions (containing protonated fatty acids) are transferred to liquid scintillation vials, dried under nitrogen, dissolved in 7 ml of Aqua sol liquid scintillation fluid, and assessed for radioactivity using a liquid scintillation counter. Inhibition of fatty acid synthesis by the test compound is expressed as the concentration required to reduce by 50% the dpm [2-^14C]acetate incorporated into saponifiable lipids during the 1 hour interval between radio labeled acetate injection and CO2 asphyxiation.
Some compounds of the present were evaluated for inhibition of fatty acid synthesis as described above. As shown below, these compounds were all observed to inhibit the synthesis of fatty acids in vivo.

[3] = biological target: T2, ACC1 from rat liver (Rattus norvegicus, UniProt P11497); assay: Direct inhibition of ACC1 activity (14C-bicarbonate incorporation); format: biochemical; settings: ACC1 from rat liver
T2 construct: The livers (for ACC1 preparation) or skeletal muscle tissue (for ACC2 preparation) are removed; from tissue; host or cells: liver of male CD rats (fasted, then fed a high sucrose diet)
In short: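 ACC1 partially purified from livers of fasted/sucrose-refed male rats by PEG and ammonium sulfate fractionation, then preincubated 30 min at 37°C with 10 mM citrate and 1.0 mM MgCl2. Reaction ran 7 min at 37°C, stopped with HCl; acid-stable radioactivity counted by scintillation; HCl-first tubes served as blanks.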

T1 sequence (Q1HEC0 17-2455): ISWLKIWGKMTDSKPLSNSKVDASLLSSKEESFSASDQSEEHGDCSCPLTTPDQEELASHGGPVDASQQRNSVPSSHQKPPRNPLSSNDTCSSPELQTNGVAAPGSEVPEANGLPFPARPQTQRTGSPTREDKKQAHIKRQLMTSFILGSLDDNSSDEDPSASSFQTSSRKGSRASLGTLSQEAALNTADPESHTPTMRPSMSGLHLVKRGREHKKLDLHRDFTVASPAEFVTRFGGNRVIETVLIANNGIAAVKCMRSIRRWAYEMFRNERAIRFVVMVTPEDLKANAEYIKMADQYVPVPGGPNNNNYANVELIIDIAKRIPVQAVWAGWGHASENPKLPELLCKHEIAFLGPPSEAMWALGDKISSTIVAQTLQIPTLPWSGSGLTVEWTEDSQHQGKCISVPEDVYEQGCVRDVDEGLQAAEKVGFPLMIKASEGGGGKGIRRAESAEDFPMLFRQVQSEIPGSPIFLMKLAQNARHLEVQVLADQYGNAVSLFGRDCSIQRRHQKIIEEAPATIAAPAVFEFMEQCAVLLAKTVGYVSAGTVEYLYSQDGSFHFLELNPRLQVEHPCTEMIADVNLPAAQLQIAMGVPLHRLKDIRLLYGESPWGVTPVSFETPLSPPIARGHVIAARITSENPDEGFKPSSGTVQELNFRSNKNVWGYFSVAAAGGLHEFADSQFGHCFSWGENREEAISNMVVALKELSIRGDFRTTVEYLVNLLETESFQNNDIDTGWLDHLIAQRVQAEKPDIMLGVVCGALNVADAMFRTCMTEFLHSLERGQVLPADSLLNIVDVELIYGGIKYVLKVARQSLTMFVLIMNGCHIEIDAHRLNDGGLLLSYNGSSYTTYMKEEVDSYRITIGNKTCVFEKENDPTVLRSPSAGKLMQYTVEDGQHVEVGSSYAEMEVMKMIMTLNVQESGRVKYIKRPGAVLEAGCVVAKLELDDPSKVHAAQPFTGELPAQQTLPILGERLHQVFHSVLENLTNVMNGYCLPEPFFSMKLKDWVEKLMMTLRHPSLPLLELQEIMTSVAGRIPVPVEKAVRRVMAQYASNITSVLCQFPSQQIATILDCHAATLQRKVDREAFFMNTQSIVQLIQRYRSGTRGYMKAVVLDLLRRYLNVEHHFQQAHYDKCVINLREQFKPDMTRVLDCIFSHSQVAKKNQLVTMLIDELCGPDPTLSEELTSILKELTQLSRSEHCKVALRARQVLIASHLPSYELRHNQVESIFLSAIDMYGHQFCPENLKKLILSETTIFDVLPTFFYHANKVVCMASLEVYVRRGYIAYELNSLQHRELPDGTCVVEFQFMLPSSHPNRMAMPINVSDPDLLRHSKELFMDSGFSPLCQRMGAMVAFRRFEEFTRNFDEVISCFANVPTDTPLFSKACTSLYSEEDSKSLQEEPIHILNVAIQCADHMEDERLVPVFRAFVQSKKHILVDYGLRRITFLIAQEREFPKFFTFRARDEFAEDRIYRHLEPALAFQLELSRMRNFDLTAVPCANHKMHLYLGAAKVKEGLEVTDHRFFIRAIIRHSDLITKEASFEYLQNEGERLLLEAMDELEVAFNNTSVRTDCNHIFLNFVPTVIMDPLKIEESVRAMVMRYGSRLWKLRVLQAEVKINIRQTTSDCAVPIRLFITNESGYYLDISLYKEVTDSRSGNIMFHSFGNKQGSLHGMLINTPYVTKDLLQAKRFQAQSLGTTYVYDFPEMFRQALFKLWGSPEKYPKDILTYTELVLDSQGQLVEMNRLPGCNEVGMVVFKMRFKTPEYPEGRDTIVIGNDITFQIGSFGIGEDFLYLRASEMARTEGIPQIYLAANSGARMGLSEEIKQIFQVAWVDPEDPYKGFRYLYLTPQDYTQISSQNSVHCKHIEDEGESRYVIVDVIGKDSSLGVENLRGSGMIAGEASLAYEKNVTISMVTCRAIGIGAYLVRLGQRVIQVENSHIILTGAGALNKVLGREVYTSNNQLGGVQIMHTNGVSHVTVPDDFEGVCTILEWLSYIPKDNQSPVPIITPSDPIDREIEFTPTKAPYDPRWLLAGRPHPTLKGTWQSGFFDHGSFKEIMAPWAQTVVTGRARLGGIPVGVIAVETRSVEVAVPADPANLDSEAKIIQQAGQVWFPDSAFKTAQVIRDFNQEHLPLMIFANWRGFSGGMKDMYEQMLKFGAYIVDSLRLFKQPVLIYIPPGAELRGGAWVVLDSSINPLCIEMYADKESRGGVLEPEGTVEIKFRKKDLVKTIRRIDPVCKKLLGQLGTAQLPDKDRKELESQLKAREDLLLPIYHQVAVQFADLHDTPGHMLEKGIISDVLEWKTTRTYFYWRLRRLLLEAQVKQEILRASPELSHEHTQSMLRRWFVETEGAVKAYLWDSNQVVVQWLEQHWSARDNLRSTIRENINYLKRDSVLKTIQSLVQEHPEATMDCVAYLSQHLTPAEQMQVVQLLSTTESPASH

Row | SMILES | IC50 [1] | inhibition at 30 mg/kg [2] | IC50 [3]
1 | Cc1cc2c(cc1C)C(=O)CC1(CCN(C(=O)c3cc(C)c4[nH]ncc4c3)CC1)O2 [Ex. A1, 6,7-dimethyl-1′-[(7-methyl-1H-indazol-5-yl)carbonyl]spiro-[chromene-2,4′-piperidin]-4(3H)-one] | 36.4 nM | 35.4% | 23.5 nM
2 | Cc1cc2c(cc1C)C(=O)CC1(CCN(C(=O)c3ccc4[nH]ncc4c3)CC1)O2 [Ex. E1, 1′-(1H-indazol-5-ylcarbonyl)-6,7-dimethylspiro[chromene-2,4′-piperidin]-4(3H)-one] |  | 30.9% | 96.5 nM
3 | Cc1cc2c(cc1Cl)C(=O)CC1(CCN(C(=O)c3ccc4[nH]ncc4c3)CC1)O2 [Ex. E2, 6-chloro-1′-(1H-indazol-5-ylcarbonyl)-7-methylspiro[chromene-2,4′-piperidin]-4(3H)-one] |  | 30.7% | 108 nM
